In patent US6596772B1, “Phosphate mimics and methods of treatment using phosphatase inhibitors” (Sugen, Inc., priority 1999, dated 2003):

Experiments:
Assay in all cases: PTP IC50 assay, pNPP or FDP as substrate
Assay type in all cases: biochemical
PTP MEG2 = biological target: T1, PTP MEG2 (Homo sapiens, UniProt P43378); settings: pNPP or FDP as substrate, 25° C.; read-out: PTP IC50 MEG2
T1 construct: made in house; host or cells: E. coli BL-21 (pGEX 6P-1)
T1 sequence (P43378 262-593 limits assumed): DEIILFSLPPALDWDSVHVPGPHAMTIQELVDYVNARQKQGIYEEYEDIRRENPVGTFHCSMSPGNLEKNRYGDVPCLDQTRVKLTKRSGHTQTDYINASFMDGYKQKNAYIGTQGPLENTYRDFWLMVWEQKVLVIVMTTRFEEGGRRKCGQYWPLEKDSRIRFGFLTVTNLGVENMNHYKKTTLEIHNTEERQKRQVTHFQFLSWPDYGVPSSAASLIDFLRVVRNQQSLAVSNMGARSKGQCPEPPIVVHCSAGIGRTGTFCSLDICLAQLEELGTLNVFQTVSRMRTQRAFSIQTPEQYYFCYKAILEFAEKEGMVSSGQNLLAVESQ
Procedure: (§1) The following in vitro assay procedure is preferred to determine the level of activity and effect of the different compounds of the present invention on one or more of the PTPs. Similar assays can be designed along the same lines for any PTP using techniques well known in the art.
(§2) The catalytic assays described herein are performed in a 96-well format. The general procedure begins with the determination of PTP optimal pH using a three-component buffer system that minimizes ionic strength variations across a wide range of buffer pH. Next, the Michaelis-Menten constant, or Km, is determined for each specific substrate-PTP system. This Km value is subsequently used as the substrate reaction concentration for compound screening. Finally, the test PTP is exposed to varying concentrations of compound for fifteen minutes and allowed to react with substrate for ten minutes. The results are plotted as percent inhibition versus compound concentration and the IC50 interpolated from the plot.
(§3) All assays were performed using pNPP or FDP as substrate. The optimum pH was determined for each PTP used.
(§4) PTPase activity was assayed at 25° C. in a 100-μl reaction mixture containing an appropriate concentration of pNPP or FDP as substrate. The reaction was initiated by addition of the PTP and quenched after 10 min by addition of 50 μl of IN NaOH. The non-enzymatic hydrolysis of the substrate was corrected by measuring the control without the addition of the enzyme. The amount of p-nitrophenol produced was determined from the absorbance at 410 nm. To determine the kinetic parameter, Km, the initial velocities were measured at various substrate concentrations and the data were fitted to the Michaelis equation where velocity=(Vmax*[S])/(Km+[S]), and [S]=substrate reaction concentration.
(§5) The effect of the compounds on PTP was evaluated at 25° C. using pNPP or FDP as substrate. PTP was pre-incubated for fifteen minutes with various concentrations of compound. Substrate was then added at a fixed concentration (usually equal to the Km previously calculated). After 10 minutes, NaOH was added to stop the reaction. The hydrolysis of pNPP was followed at 410 nm on the Biotek Powerwave 200 microplate scanning spectrophotometer. The percent inhibition was calculated as follows: Percent Inhibition=[(control signal−compound signal)/control signal] ×100%. The IC50 was then determined by interpolation of a percent inhibition versus compound concentration plot.
(§6) Plasmids designed for bacterial GST-PTP fusion protein expression were derived by insertion of PCR-generated human PTP fragments into pGEX vectors (Pharmacia Biotech). Several of these constructs were then used to subclone phosphatases into pFastBac-1for expression in Sf-9 insect cells. Oligonucleotides used for the initial amplification of PTP genes are shown below. The cDNAs were prepared using the Gilbo BRL superscript preamplification system on RNAs purchased from Clontech.
The PTP MEG2 cDNA was amplified from human placenta single strand cDNA (Clontech RNA) using the following oligonucleotides: 5′oligo: 5′-[…]-3′ (SEQ ID NO: 8) 3′oligo: 5′-[…]-3′ (SEQ ID NO: 9) and subsequently ligated into pGex 6P-1 Eco RI/Xho I sites.

PTP 1B = biological target: T2, PTP 1B (Homo sapiens, UniProt P18031); settings: pNPP or FDP as substrate, 25° C.; read-out: PTP IC50 1B
T2 construct: made in house; host or cells: Sf-9 insect cells (pFastBac-G2T)
T2 sequence (P18031 1-435): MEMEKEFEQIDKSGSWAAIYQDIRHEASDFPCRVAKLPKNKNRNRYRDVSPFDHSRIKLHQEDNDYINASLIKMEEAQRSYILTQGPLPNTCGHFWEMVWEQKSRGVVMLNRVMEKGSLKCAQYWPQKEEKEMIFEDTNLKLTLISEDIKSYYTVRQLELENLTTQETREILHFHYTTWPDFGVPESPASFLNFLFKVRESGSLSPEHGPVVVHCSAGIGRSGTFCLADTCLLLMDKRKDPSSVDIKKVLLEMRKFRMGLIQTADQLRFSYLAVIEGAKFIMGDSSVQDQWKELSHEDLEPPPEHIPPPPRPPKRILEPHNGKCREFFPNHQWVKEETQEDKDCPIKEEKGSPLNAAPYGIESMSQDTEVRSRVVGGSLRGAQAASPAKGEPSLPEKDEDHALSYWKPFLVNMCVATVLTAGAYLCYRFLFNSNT
Procedure: as §1, §2, §3, §4, §5, §6
The PTP1b cDNA was amplified from human placenta single strand cDNA (Clontech RNA) using the following oligonucleotides: 5′oligo: 5′-[…] (SEQ ID NO: 4) 3′oligo: 5′-[…] (SEQ ID NO: 5) It was subsequently ligated into pFasBac G2TBamH1Xba-1 sites.

PTP ALPHA = biological target: T3, PTP ALPHA (Homo sapiens, UniProt P18433); settings: 25° C.
T3 construct: RTPα intracellular domain construct was obtained; made in house; host or cells: E. coli BL-21 (pGEX 3X)
Procedure: as §1, §2, §3, §4, §5, §6
RTPα intracellular domain construct was obtained, Schlessinger et al., U.S. Pat. No. 5,888,794, the contents of which are hereby incorporated in their entirety into the present application. The RTPα fragment was cloned into pGEX 3× using the following procedure. The portion from EclX I/Xma III/Eag I (N-terminus blunted by Klenow) to Eco RV was cloned into the Sma I site. The EclX I site is approximately 15 residues downstream of the transmembrane domain.

PTP EPSILON = biological target: T4, PTP EPSILON (Homo sapiens, UniProt P23469); settings: pNPP or FDP as substrate, 25° C.; read-out: PTP IC50 Epilson
T4 construct: made in house; host or cells: Sf-9 insect cells (pFastBac-G2T); a pGEX 6P-1 construct also existed
Procedure: as §1, §2, §3, §4, §5, §6
The PTPepsilon cDNA was amplified from human placenta single-strand cDNA (Clontech RNA) using the following oligonucleotides: 5′oligo: 5′-[…]-3′ (SEQ ID NO: 6) 3′oligo: 5′-[…]-3′ (SEQ ID NO: 7) After cloning this PCR product into the Bam HI/Xho I sites of pGEX 6P-1, this phosphatase was subcloned using the same restriction sites in pFastBac-G2T.

T4 sequence (P23469 80-393 limits assumed): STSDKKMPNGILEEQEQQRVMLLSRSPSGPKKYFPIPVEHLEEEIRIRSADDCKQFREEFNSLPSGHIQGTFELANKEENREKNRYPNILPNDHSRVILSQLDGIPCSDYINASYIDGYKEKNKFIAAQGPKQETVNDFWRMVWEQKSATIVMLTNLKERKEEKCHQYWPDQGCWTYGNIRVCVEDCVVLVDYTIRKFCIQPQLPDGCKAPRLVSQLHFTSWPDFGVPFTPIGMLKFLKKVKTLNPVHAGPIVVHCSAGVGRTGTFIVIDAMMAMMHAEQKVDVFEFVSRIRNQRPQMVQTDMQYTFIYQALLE

SMILES	IC50 (PTP MEG2) [µM]	IC50 (PTP 1B) [µM]	IC50 (PTP ALPHA) [µM]	IC50 (PTP EPSILON) [µM]
O=C(NCc1ccc(S(=O)(=O)C(F)(F)F)cc1)c1ccc(S(=O)(=O)C(F)(F)F)cc1 [Example 5, N-(4-Trifluoromethylsulfonylbenzyl)-4-trifluoromethylsulfonylbenzamide]	> 100	> 100	> 100	38.6
O=C(NCc1ccc(S(=O)(=O)C(F)(F)F)cc1)c1ccccc1 [Example 6, N-(4-Trifluoromethylsulfonylbenzyl)benzamide]	> 100	> 100	> 100	> 100
O=C(Cc1ccccc1CC(=O)Nc1cccc(S(=O)(=O)C(F)(F)F)c1)Nc1cccc(S(=O)(=O)C(F)(F)F)c1 [Example 20, N-(3-Trifluoromethanesulfonyl-phenyl)-2-{2-[(3-trifluoromethanesulfonyl-phenylcarbamoyl)-methyl]-phenyl}-acetamide]	> 100	43.3	> 100	7.5
O=C(Cc1cccc(CC(=O)Nc2cccc(S(=O)(=O)C(F)(F)F)c2)c1)Nc1cccc(S(=O)(=O)C(F)(F)F)c1 [Example 21, N-(3-Trifluoromethanesulfonyl-phenyl)-2-{3-[(3-trifluoromethanesulfonyl-phenylcarbamoyl)-methyl]-phenyl}-acetamide]	49.4	35.3	> 100	57.8
O=C(Cc1ccc(CC(=O)Nc2cccc(S(=O)(=O)C(F)(F)F)c2)cc1)Nc1cccc(S(=O)(=O)C(F)(F)F)c1 [Example 22, N-(3-Trifluoromethanesulfonyl-phenyl)-2-{4-[(3-trifluoromethanesulfonyl-phenylcarbamoyl)-methyl]-phenyl}-acetamide]	27.5	25.7	> 100	8.3
O=[N+]([O-])c1cc(S(=O)(=O)C(F)(F)F)ccc1Oc1cc(CN2CCOCC2)c(Oc2ccc(S(=O)(=O)C(F)(F)F)cc2[N+](=O)[O-])cc1CN1CCOCC1 [Example 23, 3,6-Bis-(morpholin-4-ylmethyl)-2,5-bis-(2-nitro-4-trifluoromethanesulfonyl-phenoxy)-benzene]	> 100	11.6	> 100	2.2
CN(C)CC(COc1ccc(S(=O)(=O)C(F)(F)F)cc1[N+](=O)[O-])Oc1ccc(S(=O)(=O)C(F)(F)F)cc1[N+](=O)[O-] (stereo not shown) [Example 24, [2,3-Bis-(2-nitro-4-trifluoromethanesulfonyl-phenoxy)-propyl]-dimethyl-amine]	> 100	> 100	> 100	> 100
CCNc1ccc(S(=O)(=O)C(F)(F)F)cc1NC(=O)Cc1ccc(S(C)(=O)=O)cc1 [Example 25, N-(2-Ethylamino-5-trifluoromethanesulfonyl-phenyl)-2-(4-methanesulfonyl-phenyl)-acetamide]	52.6	16.4	> 100	41.4
CCOC(=O)c1cc(Oc2ccc(S(=O)(=O)C(F)(F)F)cc2[N+](=O)[O-])c(C(=O)OCC)cc1O [Example 26, 2-Hydroxy-5-(2-nitro-4-trifluoromethanesulfonyl-phenoxy)-terephthalic acid diethyl ester]	90.8	> 100	> 100	6.2
O=C(O)Cc1ccccc1CC(=O)Nc1cccc(S(=O)(=O)C(F)(F)F)c1 [Example 27, {2-[(3-Trifluoromethanesulfonyl-phenylcarbamoyl)-methyl]-phenyl}-acetic acid]	> 100	> 100	> 100	3.8
O=C(O)Cc1cccc(CC(=O)Nc2cccc(S(=O)(=O)C(F)(F)F)c2)c1 [Example 28, {3-[(3-Trifluoromethanesulfonyl-phenylcarbamoyl)-methyl]-phenyl}-acetic acid]	33.3	27.6	36.2	3.1

More lines, now with the values ahead:

IC50 (PTP MEG2) [µM]	IC50 (PTP 1B) [µM]	IC50 (PTP ALPHA) [µM]	IC50 (PTP EPSILON) [µM]	SMILES
62.1	55.7	> 100	8.1	O=S(=O)(c1ccc(COc2ccc(S(=O)(=O)C(F)(F)F)cc2)cc1)C(F)(F)F [Example 2, 4-Trifluoromethylsulfonylbenzyl 4-trifluoromethylsulfonylphenyl ether]
85.9	44.9	> 100	28.1	O=C(c1ccccc1)N(Cc1ccc(S(=O)(=O)C(F)(F)F)cc1)Cc1ccc(S(=O)(=O)C(F)(F)F)cc1 [Example 3, N,N-Bis(4-trifluoromethylsulfonylbenzyl)benzamide]
45.9	> 100	> 100	16.6	O=S(=O)(c1ccc(CCc2ccc(S(=O)(=O)C(F)(F)F)cc2)cc1)C(F)(F)F [Example 4, 1,2-Bis(4-trifluoromethylsulfonylphenyl)ethane]
44	16.4	40.4	0.77	O=C(O)c1ccc(Oc2cccc(Oc3ccc(S(=O)(=O)C(F)(F)F)cc3)c2)cc1 [Example 18, 4-[3-(4-Trifluoromethanesulfonyl-phenoxy)-phenoxy]-benzoic acid]
52.2	42.5	> 100	31.4	CCOC(=O)COc1ccc(S(=O)(=O)c2ccc(Oc3ccc(S(=O)(=O)C(F)(F)F)cc3)cc2)cc1 [Example 19, {4-[4-(4-trifluoromethanesulfonyl-phenoxy)-benzenesulfonyl]-phenoxy}-acetic acid ethyl ester]
